Consider 18 molecules from US12521395B2, “Gem-disubstituted heterocyclic compounds and their use as IDH inhibitors” (NERVIANO MEDICAL SCIENCES S.R.L., priority 2019, dated 2026).

As usually defined, the IC50 is the midpoint of a concentration-inhibition curve.

The structures appear in SMILES notation. Read-outs that look alike come from different tables or passages of the source.

The target of assay [1] is IDH1^R132C (Homo sapiens, UniProt O75874, R132C). Nature of the assay: NADPH depletion assay (diaphorase/resazurin), IDH1 R132C. In kind it is biochemical. Here is the method:
IDH mutated enzyme activity converting alpha-ketoglutarate to 2-hydroxyglutaric acid is measured using a NADPH depletion assay. In the assay the remaining cofactor is measured at the end of the reaction with the addition of a catalytic excess of diaphorase and resazurin, to generate a fluorescent signal in proportion to the amount of NADPH remaining. IDH1 WT enzyme as well as mutated isoforms IDH1^R132H, IDH1^R132C, and IDH2^R172K enzymes are commercially available proteins (see e.g. Sino Biological, Abcam, Active Motif or Creative BioMart).
IDH1^R132H homodimer enzyme are diluted to 8 nM, in 10 μL of Assay Buffer (150 mM NaCl, 50 mM Tris-HCl pH 7.6, 10 mM MgCl2, 0.001% Triton X-100, 4 mM β-mercaptoethanol); 0.2 μL of test compound, previously serially diluted 1 to 3, >10 experimental points from 1 mM in DMSO, is added and the mixture is incubated for 15 minutes at room temperature. The reaction is started with the addition of 10 μL of Substrate Mix (12 μM NADPH, 3.4 mM alpha-ketoglutarate in Assay Buffer) and the mixture is incubated for 60 minutes at room temperature. The reaction is terminated with the addition of 5 μl of Detection Buffer (100 μg/mL diaphorase, 30 μM resazurin, in IX Assay Buffer), and is incubated for 15 minutes before reading on a ViewLux as platereader at Ex544/Em590.
Compounds are assayed for their activity against IDH1^R132C following the same assay as above with the following modifications: IDH1^R132C and alpha-ketoglutarate final concentrations in the Assay Buffer is 2 nM and 0.14 mM, respectively.
(Resazurin is reduced to fluorescent resorufin, in cell work by metabolically active cells.)

The subject of assay [2] is cell lines HT-1080 (IDH1^R132C). Nature of the assay: Cellular assay: inhibition of 2HG production, LC-MS/MS. In kind it is cell-based. The settings on record: Homo sapiens, 72 hr incubation, 2-HG in cell culture media, read-out: HT1080 2-HG IC50. The procedure: Cell lines HT-1080 (commercially available) are maintained in E-MEM 10% FCS and incubated at 37° C. in a humidified 5% CO2 atmosphere.
Cells are seeded into 96 well black flat bottom plates at a density of 500 cells/well in 100 μL complete medium. After 24 hr the medium is replaced with 200 μL of fresh medium and compounds (dissolved into DMSO) are administrated to the cells using D300E Digital Dispenser (Tecan).
After 72 hr of incubation 100 μL from each well are collected and used for 2HG (R(−)-2-hydroxyglutarate) quantification. Levels of 2-HG in cell culture media are determined by LC-MS/MS. Cell supernatants (100 μL/well) are treated with 1 M aqueous trichloroacetic acid containing 130 μM of the internal standard 2-HG-d3 (20 μL/well) in a 96-well plate. The plates are sealed, mildly vortexed for 60 minutes, centrifuged at 4,000 RPM for 15 minutes, placed in a refrigerated autosampler taking care not to shake them, and aliquots of the upper part of the samples are directly injected in the chromatographic system. Calibration standards are obtained by ten folds dilution of aqueous 2-HG stock solutions with blank cell culture medium and denatured exactly in the same way as described above for samples. Samples and standards are assayed for 2-HG by reversed phase chromatography on a C18 column eluted with aqueous 0.15% formic acid and briefly washed with 90% methanol at the end of the run. 2-HG is determined by negative ion electrospray ionization with the internal standard method on a triple quadrupole mass spectrometer monitoring the MRM transitions 147>129 (2-HG) and 150>132 (2-HG-d3).
2-HG inhibition was calculated by comparing treated versus control data using Assay Explore (Symyx) software, with IC50 determined using a sigmoidal fitting algorithm.

Where [3] appears, read: IDH1^R132C 2 nM, alpha-ketoglutarate 0.14 mM, read-out: IDH1^R132C IC50.

IDH1^R132C, sequence (O75874 whole entry R132C, canonical isoform): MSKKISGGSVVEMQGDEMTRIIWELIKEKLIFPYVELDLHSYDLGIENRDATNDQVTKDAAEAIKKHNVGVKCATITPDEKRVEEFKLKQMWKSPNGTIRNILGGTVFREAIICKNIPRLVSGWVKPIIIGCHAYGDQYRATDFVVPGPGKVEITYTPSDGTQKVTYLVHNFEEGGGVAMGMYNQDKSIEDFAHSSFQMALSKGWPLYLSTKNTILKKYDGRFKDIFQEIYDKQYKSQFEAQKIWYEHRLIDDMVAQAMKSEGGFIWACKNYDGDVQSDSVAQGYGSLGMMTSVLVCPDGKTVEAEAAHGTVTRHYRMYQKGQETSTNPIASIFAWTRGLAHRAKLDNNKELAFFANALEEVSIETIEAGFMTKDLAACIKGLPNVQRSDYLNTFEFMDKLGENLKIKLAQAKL

Regarding `C=CC(=O)N1CCN(C2(c3ccc([C@H](C)Nc4ncc5ccc(=O)n(C(C)C)c5n4)cn3)CCOCC2)CC1` [cpd 12, 2-{[(1S)-1-{6-[4-(4-acryloylpiperazin-1-yl)tetrahydro-2H-pyran-4-yl]pyridin-3-yl}ethyl]amino}-8-(propan-2-yl)pyrido[2,3-d]pyrimidin-7(8H)-one], the IC50 in assay [1] (setting [3]) came out at 117 nM; in assay [2], 34 nM.

`C=CC(=O)N1CC(N(C)C2(c3ccc([C@H](C)Nc4cc5c(ccc(=O)n5C(C)C)cn4)cc3)CCOCC2)C1` [cpd 48, 7-{[(1S)-1-(4-{4-[(1-acryloylazetidin-3-yl)(methyl)amino]tetrahydro-2H-pyran-4-yl}phenyl)ethyl]amino}-1-(propan-2-yl)-1,6-naphthyridin-2(1H)-one]: the IC50 in assay [1] (setting [3]) worked out at 47 nM; in assay [2] it was 65 nM.

Regarding `CC(C)n1c(=O)ccc2cnc(N[C@@H](C)c3ccc(C4(N5CCN(C(=O)CCl)CC5)CCOCC4)cc3)nc21` [cpd 22, 2-{[(1S)-1-(4-{4-[4-(chloroacetyl)piperazin-1-yl]tetrahydro-2H-pyran-4-yl}phenyl)ethyl]amino}-8-(propan-2-yl) pyrido[2,3-d]pyrimidin-7(8H)-one], the IC50 in assay [1] (setting [3]) was 8 nM; in assay [2] it was 121 nM.

On to `C=CC(=O)N1CCN(C2(c3ccc(C(C)(C)Nc4ncc5ccc(=O)n(C(C)C)c5n4)cc3)CCOCC2)CC1` [cpd 40, 2-[(2-{4-[4-(4-acryloylpiperazin-1-yl)tetrahydro-2H-pyran-4-yl]phenyl}propan-2-yl)amino]-8-(propan-2-yl)pyrido[2,3-d]pyrimidin-7(8H)-one], for which the IC50 amounted to 18 nM in assay [1] (setting [3]) and 14.8 nM in assay [2]. For `C=CC(=O)N1CCN(C2(c3ccc([C@@H](C)Nc4ncc5ccc(=O)n(C(C)C)c5n4)cc3)CCOCC2)CC1` [cpd 9, 2-{[(1R)-1-{4-[4-(4-acryloylpiperazin-1-yl)tetrahydro-2H-pyran-4-yl]phenyl}ethyl]amino}-8-(propan-2-yl)pyrido[2,3-d]pyrimidin-7(8H)-one], in that order: 125 nM and 67 nM.

With `C=C(CN1CCN(C2(c3ccc([C@H](C)Nc4ncc5ccc(=O)n(C(C)C)c5n4)cc3)CCOCC2)CC1)C(=O)O` [cpd 7, 2-{[4-(4-{4-[(1S)-1-{[7-oxo-8-(propan-2-yl)-7,8-dihydropyrido[2,3-d]pyrimidin-2-yl]amino}ethyl]phenyl}tetrahydro-2H-pyran-4-yl)piperazin-1-yl]methyl}prop-2-enoic acid], the IC50 came out at 40.2 nM in assay [1] (setting [3]) and 562 nM in assay [2]. For `CC(C)n1c(=O)ccc2cnc(N[C@@H](C)c3ccc(C4(N(C)C5CN(C(=O)C(F)Cl)C5)CCC(F)(F)CC4)cc3)nc21` (stereo partly drawn) [cpd 53, 2-{[(1S)-1-(4-{1-[{1-[chloro(fluoro)acetyl]azetidin-3-yl}(methyl)amino]-4,4-difluorocyclohexyl}phenyl)ethyl]amino}-8-(propan-2-yl)pyrido[2,3-d]pyrimidin-7(8H)-one] the same measures were 28 nM and 40 nM.

On to `C=CC(=O)N1CCN(C2(c3ccc([C@H](C)Nc4ncc5ccc(=O)n(C(C)C)c5n4)cc3)CCN(C(C)=O)CC2)CC1` [cpd 6, 2-{[(1S)-1-{4-[1-acetyl-4-(4-acryloylpiperazin-1-yl)piperidin-4-yl]phenyl}ethyl]amino}-8-(propan-2-yl)pyrido[2,3-d]pyrimidin-7(8H)-one], for which the IC50 came to 5.9 nM in assay [1] (setting [3]) and 5.2 nM in assay [2]. With `C=CC(=O)N1CCN(C2(c3ccc(C4(Nc5ncc6ccc(=O)n(C(C)C)c6n5)CC4)cc3)CCCC2)CC1` [cpd 49, 2-[(1-{4-[1-(4-acryloylpiperazin-1-yl)cyclopentyl]phenyl}cyclopropyl)amino]-8-(propan-2-yl)pyrido[2,3-d]pyrimidin-7(8H)-one], the IC50 came out at 17 nM in assay [1] (setting [3]) and 3 nM in assay [2]. For the molecule `C=CC(=O)N1CCN(C2(c3ccc([C@H](C)Nc4ncc5c(n4)N(CC)C(=O)OC5)cc3)CCOCC2)CC1` [cpd 24, 7-{[(1S)-1-{4-[4-(4-acryloylpiperazin-1-yl)tetrahydro-2H-pyran-4-yl]phenyl}ethyl]amino}-1-ethyl-1,4-dihydro-2H-pyrimido[4,5-d][1,3]oxazin-2-one], the values for the IC50 in assay [1] (setting [3]) and in assay [2] were 3 nM and 2.1 nM, respectively. For `C=CC(=O)N1CCN(C2(c3ccc([C@H](C)Nc4ncc5ccc(=O)n(C(C)C)c5n4)cc3)COC2)CC1` [cpd 3, 2-{[(1S)-1-{4-[3-(4-acryloylpiperazin-1-yl)oxetan-3-yl]phenyl}ethyl]amino}-8-(propan-2-yl)pyrido[2,3-d]pyrimidin-7(8H)-one], in that order: 27.2 nM and 13 nM. As to `C=CC(=O)N1CCN(C2(c3ccc([C@H](C)Nc4cc5c(cn4)COC(=O)N5CC)cc3)CCOCC2)CC1` [cpd 44, 7-{[(1S)-1-{4-[4-(4-acryloylpiperazin-1-yl)tetrahydro-2H-pyran-4-yl]phenyl}ethyl]amino}-1-ethyl-1,4-dihydro-2H-pyrido[4,3-d][1,3]oxazin-2-one], the half-inhibitory concentration (IC50) in assay [1] (setting [3]) was 9 nM; in assay [2] it was 4 nM. On to `C=CC(=O)N1CCN(C2(c3ccc([C@H](C)Nc4ncc5ccc(=O)n(C(C)C)c5n4)cc3)CCCCC2)CC1` [cpd 20, 2-{[(1S)-1-{4-[1-(4-acryloylpiperazin-1-yl)cyclohexyl]phenyl}ethyl]amino}-8-(propan-2-yl)pyrido[2,3-d]pyrimidin-7(8H)-one], for which the IC50 in assay [1] and in assay [2] was 1 nM each time. As to `C=CC(=O)N1CC(N(C)C2(c3ccc([C@H](C)Nc4ncc5ccc(=O)n(C(C)C)c5n4)cc3)CCOCC2)C1` [cpd 28, 2-{[(1S)-1-(4-{4-[(1-acryloylazetidin-3-yl)(methyl)amino]tetrahydro-2H-pyran-4-yl}phenyl)ethyl]amino}-8-(propan-2-yl) pyrido[2,3-d]pyrimidin-7(8H)-one], the IC50 amounted to 26 nM in assay [1] (setting [3]) and 47 nM in assay [2].

For `C=CC(=O)N1CCN(C2(c3ccc([C@H](C)Nc4ncc5c(C)cc(=O)n(C6CCCC6)c5n4)cc3)CCOCC2)CC1` [cpd 15, 2-{[(1S)-1-{4-[4-(4-acryloylpiperazin-1-yl)tetrahydro-2H-pyran-4-yl]phenyl}ethyl]amino}-8-cyclopentyl-5-methylpyrido[2,3-d]pyrimidin-7(8H)-one], the results for the IC50 in assay [1] (setting [3]) and in assay [2] were 24.7 nM and 9 nM, respectively. `C=CC(=O)N1CCN(C2(c3ccc([C@H](C)Nc4ncc5ccc(=O)n(C(C)C)c5n4)cc3)CCCC2)CC1` [cpd 16, 2-{[(1S)-1-{4-[1-(4-acryloylpiperazin-1-yl)cyclopentyl]phenyl}ethyl]amino}-8-(propan-2-yl)pyrido[2,3-d]pyrimidin-7(8H)-one]: the IC50 in assay [1] (setting [3]) was 1.3 nM; in assay [2], 0.3 nM. Turning to `C=CC(=O)N1CC(N(C(C)=O)C2(c3ccc([C@H](C)Nc4cc5c(ccc(=O)n5C(C)C)cn4)cc3)CCC(F)(F)CC2)C1` [cpd 62, N-(1-acryloylazetidin-3-yl)-N-(4,4-difluoro-1-{4-[(1S)-1-{[2-oxo-1-(propan-2-yl)-1,2-dihydro-1,6-naphthyridin-7-yl]amino}ethyl]phenyl}cyclohexyl)acetamide], the IC50 in assay [1] (setting [3]) was found to be 2 nM. On the same count and under the same terms, the figure for `C=CC(=O)N[C@@H](C)C(=O)NC1(c2ccc([C@H](C)Nc3ncc4ccc(=O)n(C(C)C)c4n3)cc2)CCC(F)(F)CC1` [cpd 58, N2-acryloyl-N-(4,4-difluoro-1-{4-[(1S)-1-{[7-oxo-8-(propan-2-yl)-7,8-dihydropyrido[2,3-d]pyrimidin-2-yl]amino}ethyl]phenyl}cyclohexyl)-L-alaninamide] is 352 nM.
